We go through 35 molecules from patent US7655665B2, “Nitromethylene derivatives and their use” (East China University of Science and Technology, priority 2004, dated 2010).

One series deals with Nilaparvata lugens. Nature of the series: Insecticidal activity against Nilaparvata lugens (planthopper) by spraying. The class given is in vivo. Particulars: 500 ppm; spraying 2 ml; counted after 24 hours. As for the experimental part: (§1) Test on the insecticidal activity of Compound Nos. 1-227
Planthopper, which belongs to Homoptera and has a piercing-sucking mouthpart, is a common insect for agricultural plant. Nilaparvata lugens was tested by the way of spraying.
Test method: the test compound was exactly formulated into a solution having a certain concentration and clean water was used as a blank control. Each process was repeated for 3 tumblers (3 times). 2 ml of solution was sprayed uniformly to each tumbler by a mini manual sprayer. 10 Nilaparvata lugens were introduced to every sink 6 hours before spraying. Three series of experiments were conducted. The number of killed Nilaparvata lugens was counted after 24 hours to calculate the mortality.

Another series has as its system Aphis craccivoral. Nature of the series: Insecticidal activity against Aphis craccivoral by immersing (dipping aphids on bean sprout). It counts as in vivo. Particulars: 500 ppm; immersing (dipped 5 seconds); counted after 24 hours; 23° C. As for the experimental part:
as §1
Aphis, which belongs to Homoptera and has a piercing-sucking mouthpart, is a common insect for agricultural plant. Aphis craccivoral was tested by the way of immersing.
Test method: exactly weighed various samples were independently added to N,N-dimethylformamide to form a 10 g/L stock solution. The mixture was diluted with 0.2 mL/L aqueous Triton X-100 solution to a concentration of 500 ug/mL. After stably sucking on bean sprout, the adult aphis without wings together with bean sprout was dipped into 500 ug/mL dilution, taken out after 5 seconds, and the excess dilution was sucked out with bibulous paper and the adult aphis without wings was incubated in clean vessel at a constant temperature of 23° C. Each concentration was repeated for 3 times and the control group contained 0.2 mL/L aqueous Triton X-100 solution. The number of killed aphis was counted after 24 hours to calculate the mortality.

Each structure is given as a SMILES string.

For `CC(C)OC1CCC([N+](=O)[O-])=C2N(CC3CCOC3)CCCN21` (stereo not shown) [Compound 105], in the series with Nilaparvata lugens, the “mortality (%) (500 ppm) Nilaparvata lugens” value was found to be 98%. In addition, the “mortality (%) (500 ppm) Aphis” value with Aphis craccivoral is 10%.

`CCCCOC1CCC([N+](=O)[O-])=C2N(CC3CCOC3)CCCN21` (stereo not shown) [Compound 107]: in the series on Nilaparvata lugens, the “mortality (%) (500 ppm) Nilaparvata lugens” value is 0%. Also, the “mortality (%) (500 ppm) Aphis” value with Aphis craccivoral amounted to 7%.

As for `CC(C)COC1CCC([N+](=O)[O-])=C2N(CC3CCOC3)CCCN21` (stereo not shown) [Compound 108], the “mortality (%) (500 ppm) Nilaparvata lugens” value in the series on Nilaparvata lugens is on record as 9%. Besides, the “mortality (%) (500 ppm) Aphis” value with Aphis craccivoral turned out to be 1%.

`CCC(C)OC1CCC([N+](=O)[O-])=C2N(CC3CCOC3)CCCN21` (stereo not shown) [Compound 109]: the “mortality (%) (500 ppm) Nilaparvata lugens” value in the series on Nilaparvata lugens is given as 10%. In the series with Aphis craccivoral, the “mortality (%) (500 ppm) Aphis” value is on record as 2%.

Consider `CC(C)(C)OC1CCC([N+](=O)[O-])=C2N(CC3CCOC3)CCCN21` (stereo not shown) [Compound 110], for which the “mortality (%) (500 ppm) Nilaparvata lugens” value in the series on Nilaparvata lugens came out at 98%. Also, in the series on Aphis craccivoral, the “mortality (%) (500 ppm) Aphis” value was found to be 67%.

Consider `O=[N+]([O-])C1=C2N(Cc3ccc(Cl)nc3)CCN2C(Oc2ccccc2)CC1` (stereo not shown) [Compound 112], for which, in the series with Nilaparvata lugens, the “mortality (%) (500 ppm) Nilaparvata lugens” value is listed as 75%. Also, the “mortality (%) (500 ppm) Aphis” value with Aphis craccivoral worked out at 38%.

Turning to `CC(=O)OC1CCC([N+](=O)[O-])=C2N(Cc3ccc(Cl)nc3)CCN21` (stereo not shown) [Compound 113], in the series with Nilaparvata lugens, the “mortality (%) (500 ppm) Nilaparvata lugens” value is listed as 77%. Moreover, the “mortality (%) (500 ppm) Aphis” value with Aphis craccivoral is given as 45%.

With `CCC(=O)OC1CCC([N+](=O)[O-])=C2N(Cc3ccc(Cl)nc3)CCN21` (stereo not shown) [Compound 114], in the series with Nilaparvata lugens, the “mortality (%) (500 ppm) Nilaparvata lugens” value stood at 88%. In addition, the “mortality (%) (500 ppm) Aphis” value with Aphis craccivoral was 56%.

With `O=C(OC1CCC([N+](=O)[O-])=C2N(Cc3ccc(Cl)nc3)CCN21)C(Cl)(Cl)Cl` (stereo not shown) [Compound 115], the “mortality (%) (500 ppm) Nilaparvata lugens” value in the series on Nilaparvata lugens was found to be 33%. In the series on Aphis craccivoral, the “mortality (%) (500 ppm) Aphis” value is recorded as 0%.

Regarding `O=C(OC1CCC([N+](=O)[O-])=C2N(Cc3ccc(Cl)nc3)CCN21)C(F)(F)F` (stereo not shown) [Compound 116], the “mortality (%) (500 ppm) Nilaparvata lugens” value in the series on Nilaparvata lugens worked out at 45%. In addition, the “mortality (%) (500 ppm) Aphis” value in the series with Aphis craccivoral is listed as 2%.

Consider `CS(=O)(=O)OC1CCC([N+](=O)[O-])=C2N(Cc3ccc(Cl)nc3)CCN21` (stereo not shown) [Compound 117], for which the “mortality (%) (500 ppm) Nilaparvata lugens” value in the series on Nilaparvata lugens was 65%. The “mortality (%) (500 ppm) Aphis” value with Aphis craccivoral is reported as 19%.

On to `O=[N+]([O-])C1=C2N(Cc3ccc(Cl)nc3)CCN2C(OS(=O)(=O)C(F)(F)F)CC1` (stereo not shown) [Compound 118], for which, in the series with Nilaparvata lugens, the “mortality (%) (500 ppm) Nilaparvata lugens” value came to 100%. Further, the “mortality (%) (500 ppm) Aphis” value in the series on Aphis craccivoral was 81%.

Take `O=[N+]([O-])C1=C2N(Cc3ccc(Cl)nc3)CCN2C(OS(=O)(=O)c2ccccc2)CC1` (stereo not shown) [Compound 119]: in the series on Nilaparvata lugens, the “mortality (%) (500 ppm) Nilaparvata lugens” value worked out at 23%. Moreover, the “mortality (%) (500 ppm) Aphis” value in the series on Aphis craccivoral is reported as 3%.

Consider `O=C(OC1CCC([N+](=O)[O-])=C2N(Cc3ccc(Cl)nc3)CCN21)c1cccnc1` (stereo not shown) [Compound 120], for which, in the series with Nilaparvata lugens, the “mortality (%) (500 ppm) Nilaparvata lugens” value was 5%. Further, the “mortality (%) (500 ppm) Aphis” value in the series on Aphis craccivoral came out at 1%.

Take `O=C(OC1CCC([N+](=O)[O-])=C2N(Cc3ccc(Cl)nc3)CCN21)c1ccccn1` (stereo not shown) [Compound 121]: in the series with Nilaparvata lugens, the “mortality (%) (500 ppm) Nilaparvata lugens” value is on record as 8%. For the same molecule, the “mortality (%) (500 ppm) Aphis” value with Aphis craccivoral was 0%.

In the case of `O=C(OC1CCC([N+](=O)[O-])=C2N(Cc3ccc(Cl)nc3)CCN21)c1ccccc1` (stereo not shown) [Compound 122], the “mortality (%) (500 ppm) Nilaparvata lugens” value in the series on Nilaparvata lugens is listed as 23%. Further, the “mortality (%) (500 ppm) Aphis” value in the series with Aphis craccivoral is 56%.

Turning to `O=C(OC1CCC([N+](=O)[O-])=C2N(Cc3ccc(Cl)nc3)CCN21)c1ccc(F)cc1` (stereo not shown) [Compound 123], the “mortality (%) (500 ppm) Nilaparvata lugens” value in the series with Nilaparvata lugens was 100%. In addition, the “mortality (%) (500 ppm) Aphis” value with Aphis craccivoral amounted to 56%.

Regarding `O=C(OC1CCC([N+](=O)[O-])=C2N(Cc3ccc(Cl)nc3)CCN21)c1ccc(Cl)cc1` (stereo not shown) [Compound 124], the “mortality (%) (500 ppm) Nilaparvata lugens” value in the series with Nilaparvata lugens is on record as 0%. Further, the “mortality (%) (500 ppm) Aphis” value in the series with Aphis craccivoral worked out at 22%.

On to `O=C(OC1CCC([N+](=O)[O-])=C2N(Cc3ccc(Cl)nc3)CCN21)c1cc(F)c(Cl)cc1Cl` (stereo not shown) [Compound 125], for which the “mortality (%) (500 ppm) Nilaparvata lugens” value in the series on Nilaparvata lugens amounted to 92%. For the same molecule, the “mortality (%) (500 ppm) Aphis” value in the series on Aphis craccivoral is on record as 67%.

`O=C(OC1CCC([N+](=O)[O-])=C2N(Cc3ccc(Cl)nc3)CCN21)c1ccc(C(F)(F)F)cc1` (stereo not shown) [Compound 126]: in the series on Nilaparvata lugens, the “mortality (%) (500 ppm) Nilaparvata lugens” value is reported as 100%. Moreover, the “mortality (%) (500 ppm) Aphis” value in the series with Aphis craccivoral stood at 93%.

Consider `O=C(OC1CCC([N+](=O)[O-])=C2N(Cc3ccc(Cl)nc3)CCN21)c1cc(F)c(F)cc1F` (stereo not shown) [Compound 127], for which the “mortality (%) (500 ppm) Nilaparvata lugens” value in the series with Nilaparvata lugens was determined as 78%. Besides, in the series with Aphis craccivoral, the “mortality (%) (500 ppm) Aphis” value was determined as 45%.

For the molecule `O=C(OC1CCC([N+](=O)[O-])=C2N(Cc3ccc(Cl)nc3)CCN21)c1cc(F)c(F)c(F)c1F` (stereo not shown) [Compound 128], the “mortality (%) (500 ppm) Nilaparvata lugens” value in the series on Nilaparvata lugens was 21%. The “mortality (%) (500 ppm) Aphis” value in the series on Aphis craccivoral stood at 0%.

Regarding `O=C(OC1CCC([N+](=O)[O-])=C2N(Cc3ccc(Cl)nc3)CCN21)c1ccccc1F` (stereo not shown) [Compound 129], in the series on Nilaparvata lugens, the “mortality (%) (500 ppm) Nilaparvata lugens” value was 34%. Also, the “mortality (%) (500 ppm) Aphis” value in the series on Aphis craccivoral was determined as 0%.

Turning to `O=C(OC1CCC([N+](=O)[O-])=C2N(Cc3ccc(Cl)nc3)CCN21)c1cc(F)c(F)c([N+](=O)[O-])c1F` (stereo not shown) [Compound 130], the “mortality (%) (500 ppm) Nilaparvata lugens” value in the series with Nilaparvata lugens is given as 67%. Further, the “mortality (%) (500 ppm) Aphis” value in the series with Aphis craccivoral came to 23%.

`O=C(OC1CCC([N+](=O)[O-])=C2N(Cc3ccc(Cl)nc3)CCN21)c1ccc(Cl)c(Cl)c1` (stereo not shown) [Compound 131]: the “mortality (%) (500 ppm) Nilaparvata lugens” value with Nilaparvata lugens was 0%. For the same molecule, the “mortality (%) (500 ppm) Aphis” value in the series on Aphis craccivoral was 3%.

`CSC1CCC([N+](=O)[O-])=C2N(Cc3ccc(Cl)nc3)CCN21` (stereo not shown) [Compound 132]: the “mortality (%) (500 ppm) Nilaparvata lugens” value in the series with Nilaparvata lugens is on record as 100%. Also, in the series on Aphis craccivoral, the “mortality (%) (500 ppm) Aphis” value stood at 100%.

Take `CCSC1CCC([N+](=O)[O-])=C2N(Cc3ccc(Cl)nc3)CCN21` (stereo not shown) [Compound 133]: in the series with Nilaparvata lugens, the “mortality (%) (500 ppm) Nilaparvata lugens” value is 100%. Besides, in the series with Aphis craccivoral, the “mortality (%) (500 ppm) Aphis” value came out at 100%.

Consider `O=[N+]([O-])C1=C2N(Cc3ccc(Cl)nc3)CCN2C(SCC(F)(F)F)CC1` (stereo not shown) [Compound 135], for which the “mortality (%) (500 ppm) Nilaparvata lugens” value with Nilaparvata lugens worked out at 100%. Besides, the “mortality (%) (500 ppm) Aphis” value with Aphis craccivoral stood at 98%.

On to `CCCSC1CCC([N+](=O)[O-])=C2N(Cc3ccc(Cl)nc3)CCN21` (stereo not shown) [Compound 136], for which the “mortality (%) (500 ppm) Nilaparvata lugens” value with Nilaparvata lugens stood at 100%. Also, the “mortality (%) (500 ppm) Aphis” value with Aphis craccivoral was found to be 100%.

As for `CC(C)SC1CCC([N+](=O)[O-])=C2N(Cc3ccc(Cl)nc3)CCN21` (stereo not shown) [Compound 137], the “mortality (%) (500 ppm) Nilaparvata lugens” value in the series with Nilaparvata lugens worked out at 100%. Moreover, the “mortality (%) (500 ppm) Aphis” value in the series with Aphis craccivoral stood at 89%.

Turning to `O=[N+]([O-])C1=C2N(Cc3ccc(Cl)nc3)CCN2C(SC(C(F)(F)F)C(F)(F)F)CC1` (stereo not shown) [Compound 138], the “mortality (%) (500 ppm) Nilaparvata lugens” value in the series with Nilaparvata lugens was determined as 98%. In the series on Aphis craccivoral, the “mortality (%) (500 ppm) Aphis” value is recorded as 45%.

Take `CCCCSC1CCC([N+](=O)[O-])=C2N(Cc3ccc(Cl)nc3)CCN21` (stereo not shown) [Compound 139]: in the series on Nilaparvata lugens, the “mortality (%) (500 ppm) Nilaparvata lugens” value worked out at 78%. In addition, the “mortality (%) (500 ppm) Aphis” value in the series with Aphis craccivoral was 34%.

As for `CC(C)CSC1CCC([N+](=O)[O-])=C2N(Cc3ccc(Cl)nc3)CCN21` (stereo not shown) [Compound 140], the “mortality (%) (500 ppm) Nilaparvata lugens” value with Nilaparvata lugens was determined as 78%. In the series on Aphis craccivoral, the “mortality (%) (500 ppm) Aphis” value is listed as 67%.

Take `CCC(C)SC1CCC([N+](=O)[O-])=C2N(Cc3ccc(Cl)nc3)CCN21` (stereo not shown) [Compound 141]: in the series with Nilaparvata lugens, the “mortality (%) (500 ppm) Nilaparvata lugens” value came out at 89%. The “mortality (%) (500 ppm) Aphis” value in the series on Aphis craccivoral turned out to be 56%.

Consider `CC(C)(C)SC1CCC([N+](=O)[O-])=C2N(Cc3ccc(Cl)nc3)CCN21` (stereo not shown) [Compound 142], for which the “mortality (%) (500 ppm) Nilaparvata lugens” value in the series on Nilaparvata lugens came out at 88%. The “mortality (%) (500 ppm) Aphis” value with Aphis craccivoral was determined as 67%.
